Measurements reported in patent EP3623369A1, “NOVEL MORPHOLINYL AMINE COMPOUNDS FOR THE TREATMENT OF AUTOIMMUNE DISEASE” (F. Hoffmann-La Roche AG, priority 2018, dated 2020).

Target: T1, hTLR9 (Homo sapiens, UniProt Q9NR96)
T1 sequence (Q9NR96 26-1032): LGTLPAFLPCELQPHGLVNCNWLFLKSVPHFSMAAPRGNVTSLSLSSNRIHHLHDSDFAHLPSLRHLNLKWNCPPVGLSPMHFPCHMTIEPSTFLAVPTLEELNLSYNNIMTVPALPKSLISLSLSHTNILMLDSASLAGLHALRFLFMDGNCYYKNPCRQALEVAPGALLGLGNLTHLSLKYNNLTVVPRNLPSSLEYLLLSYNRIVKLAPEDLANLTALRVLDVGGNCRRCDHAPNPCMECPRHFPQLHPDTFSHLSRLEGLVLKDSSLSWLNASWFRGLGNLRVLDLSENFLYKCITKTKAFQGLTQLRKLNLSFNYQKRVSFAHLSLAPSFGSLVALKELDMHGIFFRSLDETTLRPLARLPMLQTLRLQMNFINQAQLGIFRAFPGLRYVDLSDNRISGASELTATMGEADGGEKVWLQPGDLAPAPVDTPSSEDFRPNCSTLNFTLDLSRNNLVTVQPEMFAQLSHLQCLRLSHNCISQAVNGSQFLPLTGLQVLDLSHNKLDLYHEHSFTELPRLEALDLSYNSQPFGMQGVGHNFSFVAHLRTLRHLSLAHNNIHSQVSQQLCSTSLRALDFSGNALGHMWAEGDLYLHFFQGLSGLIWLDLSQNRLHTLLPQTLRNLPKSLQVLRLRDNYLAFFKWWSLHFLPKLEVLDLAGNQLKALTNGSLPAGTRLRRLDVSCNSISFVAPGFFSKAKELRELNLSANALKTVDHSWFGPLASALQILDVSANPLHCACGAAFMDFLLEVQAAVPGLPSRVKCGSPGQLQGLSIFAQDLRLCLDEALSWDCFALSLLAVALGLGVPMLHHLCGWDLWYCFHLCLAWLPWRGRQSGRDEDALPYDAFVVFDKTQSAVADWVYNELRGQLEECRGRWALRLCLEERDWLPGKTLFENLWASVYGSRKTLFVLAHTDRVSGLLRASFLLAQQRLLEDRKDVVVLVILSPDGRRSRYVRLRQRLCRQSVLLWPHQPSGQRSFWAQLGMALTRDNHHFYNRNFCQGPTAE
Assay: HEK293-Blue-hTLR-9 cells assay (SEAP reporter, ODN2006 stimulation)
Format: cell-based
Conditions: HEK293-Blue-hTLR9 cells, ODN2006, 20 hrs; 0.032 is the lowest tested concentration; read-out: HEK/hTLR9 IC50
Method: The following tests were carried out in order to determine the activity of the compounds of formula (I) or (Ia) in HEK293-Blue-hTLR-7/8/9 cells assay.
HEK293-Blue-hTLR-9 cells assay:
A stable HEK293-Blue-hTLR-9 cell line was purchased from InvivoGen (Cat.#: hkb-htlr9, San Diego, California, USA). These cells were originally designed for studying the stimulation of human TLR9 by monitoring the activation of NF-κB. A SEAP (secreted embryonic alkaline phosphatase) reporter gene was placed under the control of the IFN-β minimal promoter fused to five NF-κB and AP-1-binding sites. The SEAP was induced by activating NF-κB and AP-1 via stimulating HEK-Blue hTLR9 cells with TLR9 ligands. Therefore the reporter expression was declined by TLR9 antagonist under the stimulation of a ligand, such as ODN2006 (Cat.#: tlrl-2006-1, Invivogen, San Diego, California, USA), for incubation of 20 hrs. The cell culture supernatant SEAP reporter activity was determined using QUANTI-Blue™ kit (Cat.#: rep-qb1, Invivogen, San Diego, California, USA) at a wavelength of 640 nm, a detection medium that turns purple or blue in the presence of alkaline phosphatase.
HEK293-Blue-hTLR9 cells were incubated at a density of 250,000∼450,000 cells/mL in a volume of 170 µL in a 96-well plate in Dulbecco's Modified Eagle's medium (DMEM) containing 4.5 g/L glucose, 50 U/mL penicillin, […], […], 2 mM L-glutamine, 10% (v/v) heat-inactivated fetal bovine serum with addition of 20 µL test compound in a serial dilution in the presence of final DMSO at 1% and 10 µL of 20uM ODN2006 in above DMEM, perform incubation under 37 °C in a CO2 incubator for 20 hrs. Then 20 µL of the supernatant from each well was incubated with 180 µL Quanti-blue substrate solution at 37 °C for 2 hrs and the absorbance was read at 620∼655 nm using a spectrophotometer. The signalling pathway that TLR9 activation leads to downstream NF-κB activation has been widely accepted, and therefore similar reporter assay was modified for evaluating TLR9 antagonist.

SMILES: C[C@@H]1CN(c2ccc(C#N)n3nccc23)C[C@H](CN2Cc3ccc(OCCN(C)C)cc3C2)O1 [Example 28, 4-[(2S,6R)-2-[[5-[2-(dimethylamino)ethoxy]isoindolin-2-yl]methyl]-6-methyl-morpholin-4-yl]pyrazolo[1,5-a]pyridine-7-carbonitrile]
- IC50: 93 nM

SMILES: C[C@@H]1CN(c2ccc(C#N)n3ncc(F)c23)C[C@H](CN2Cc3cc(N4CCNCC4)cnc3C2)O1 [Example 29, 3-fluoro-4-[(2R,6S)-2-methyl-6-[(3-piperazin-1-yl-5,7-dihydropyrrolo[3,4-b]pyridin-6-yl)methyl]morpholin-4-yl]pyrazolo[1,5-a]pyridine-7-carbonitrile]
- IC50: 134 nM

SMILES: C[C@@H]1CN(c2ccc(C#N)c3nccnc23)C[C@H](CN2Cc3cc(N4CCNCC4)cnc3C2)O1 [Example 30, 8-[(2R,6S)-2-methyl-6-[(3-piperazin-1-yl-5,7-dihydropyrrolo[3,4-b]pyridin-6-yl)methyl]morpholin-4-yl]quinoxaline-5-carbonitrile]
- IC50: 136 nM

SMILES: C[C@@H]1CN(c2ccc(Cl)c3ncccc23)C[C@H](CN2Cc3ccc(N4CCNCC4)cc3C2)O1 [Example 31, (2R,6S)-4-(8-chloro-5-quinolyl)-2-methyl-6-[(5-piperazin-1-ylisoindolin-2-yl)methyl]morpholine]
- IC50: 168 nM

SMILES: C[C@@H]1CN(c2ccc(Cl)c3ncccc23)C[C@H](CN2CCc3cc(N4CCNCC4)ccc3C2)O1 [Example 32, (2R,6S)-4-(8-chloro-5-quinolyl)-2-methyl-6-[(6-piperazin-1-yl-3,4-dihydro-1H-isoquinolin-2-yl)methyl]morpholine]
- IC50: 123 nM

SMILES: C[C@@H]1CN(c2ccc(Cl)c3nccnc23)C[C@H](CN2Cc3ccc(N4CCNCC4)cc3C2)O1 [Example 33, (2R,6S)-4-(8-chloroquinoxalin-5-yl)-2-methyl-6-[(5-piperazin-1-ylisoindolin-2-yl)methyl]morpholine]
- IC50: 174 nM

SMILES: C[C@@H]1CN(c2ccc(Cl)c3nccnc23)C[C@H](CN2CCc3cc(N4CCNCC4)ccc3C2)O1 [Example 34, (2R,6S)-4-(8-chloroquinoxalin-5-yl)-2-methyl-6-[(6-piperazin-1-yl-3,4-dihydro-1H-isoquinolin-2-yl)methyl]morpholine]
- IC50: 125 nM

SMILES: C[C@@H]1CN(c2ccc(C#N)c3nccnc23)C[C@H](CN2Cc3ccc(N4CCN(C5CC5)CC4)cc3C2)O1 [Example 35, 8-[(2S,6R)-2-[[5-(4-cyclopropylpiperazin-1-yl)isoindolin-2-yl]methyl]-6-methyl-morpholin-4-yl]quinoxaline-5-carbonitrile]
- IC50: 216 nM

SMILES: CC1CN(c2ccc3c(c2)CN(C[C@H]2CN(c4ccc(C#N)c5nccnc45)C[C@@H](C)O2)C3)CCN1 (stereo partly drawn) [Example 36, 8-[(2R,6S)-2-methyl-6-[[5-(3-methylpiperazin-1-yl)isoindolin-2-yl]methyl]morpholin-4-yl]quinoxaline-5-carbonitrile]
- IC50: 57 nM

SMILES: COCCN1CCN(c2ccc3c(c2)CN(C[C@H]2CN(c4ccc(C#N)c5nccnc45)C[C@@H](C)O2)C3)CC1 [Example 37, 8-[(2S,6R)-2-[[5-[4-(2-methoxyethyl)piperazin-1-yl]isoindolin-2-yl]methyl]-6-methyl-morpholin-4-yl]quinoxaline-5-carbonitrile]
- IC50: 260 nM

SMILES: C[C@@H]1CN(c2ccc(C#N)c3nccnc23)C[C@H](CN2Cc3ccc(N4CCNC5(CC5)C4)cc3C2)O1 [Example 38, 8-[(2S,6R)-2-[[5-(4,7-diazaspiro[2.5]octan-7-yl)isoindolin-2-yl]methyl]-6-methyl-morpholin-4-yl]quinoxaline-5-carbonitrile]
- IC50: 227 nM

SMILES: C[C@@H]1CN(c2ccc(C#N)c3nccnc23)C[C@H](CN2Cc3ccc(N4CCN5CCCCC5C4)cc3C2)O1 (stereo partly drawn) [Example 40, 8-[(2S,6R)-2-[[5-(1,3,4,6,7,8,9,9a-octahydropyrido[1,2-a]pyrazin-2-yl)isoindolin-2-yl]methyl]-6-methyl-morpholin-4-yl]quinoxaline-5-carbonitrile]
- IC50: 122 nM

SMILES: C[C@@H]1CN(c2ccc(C#N)c3nccnc23)C[C@H](CN2Cc3ccc(N4C5CCC4CNC5)cc3C2)O1 [Example 41, 8-[(2S,6R)-2-[[5-(3,8-diazabicyclo[3.2.1]octan-8-yl)isoindolin-2-yl]methyl]-6-methyl-morpholin-4-yl]quinoxaline-5-carbonitrile]
- IC50: 227 nM

SMILES: C[C@@H]1CN(c2ccc(C#N)c3ncccc23)C[C@H](CN2Cc3ccc(N4CC5CCC(C4)N5)cc3C2)O1 [Example 42, 5-[(2S,6R)-2-[[5-(3,8-diazabicyclo[3.2.1]octan-3-yl)isoindolin-2-yl]methyl]-6-methyl-morpholin-4-yl]quinoline-8-carbonitrile]
- IC50: 97 nM

SMILES: C[C@@H]1CN(c2ccc(C#N)c3ncccc23)C[C@H](CN2Cc3ccc(N4C5CCC4CNC5)cc3C2)O1 [Example 43, 5-[(2S,6R)-2-[[5-(3,8-diazabicyclo[3.2.1]octan-8-yl)isoindolin-2-yl]methyl]-6-methyl-morpholin-4-yl]quinoline-8-carbonitrile]
- IC50: 88 nM

SMILES: C[C@@H]1CN(c2ccc(C#N)c3ncccc23)C[C@H](CN2Cc3ccc(N4C5CNCC4COC5)cc3C2)O1 [Example 46, 5-[(2R,6S)-2-methyl-6-[[5-(3-oxa-7,9-diazabicyclo[3.3.1]nonan-9-yl)isoindolin-2-yl]methyl]morpholin-4-yl]quinoline-8-carbonitrile]
- IC50: 75 nM

SMILES: C[C@@H]1CN(c2ccc(C#N)c3ncccc23)C[C@H](CN2Cc3ccc(N4CC5(CNC5)C4)cc3C2)O1 [Example 47, 5-[(2S,6R)-2-[[5-(2,6-diazaspiro[3.3]heptan-2-yl)isoindolin-2-yl]methyl]-6-methyl-morpholin-4-yl]quinoline-8-carbonitrile]
- IC50: 83 nM

SMILES: CC1c2ccc(N3CCNCC3)cc2CN1C[C@H]1CN(c2ccc(C#N)c3ncccc23)C[C@@H](C)O1 (stereo partly drawn) [Example 48, 5-[(2R,6S)-2-methyl-6-[(1-methyl-5-piperazin-1-yl-isoindolin-2-yl)methyl]morpholin-4-yl]quinoline-8-carbonitrile]
- IC50: 105 nM

SMILES: C[C@@H]1CN(c2ccc(C#N)c3nccnc23)C[C@H](CN2Cc3ccc(N4CC5COCC(C4)N5)cc3C2)O1 [Example 49, 8-[(2R,6S)-2-methyl-6-[[5-(3-oxa-7,9-diazabicyclo[3.3.1]nonan-7-yl)isoindolin-2-yl]methyl]morpholin-4-yl]quinoxaline-5-carbonitrile]
- IC50: 164 nM

SMILES: CCOC(=O)C1CNCCN1c1ccc2c(c1)CN(C[C@H]1CN(c3ccc(C#N)c4ncccc34)C[C@@H](C)O1)C2 (stereo partly drawn) [Example 50, Ethyl 1-[2-[[(2S,6R)-4-(8-cyano-5-quinolyl)-6-methyl-morpholin-2-yl]methyl]isoindolin-5-yl] piperazine-2-carboxylate]
- IC50: 259 nM

SMILES: C[C@@H]1CN(c2ccc(C#N)c3ncccc23)C[C@H](CN2Cc3ccc(N4CC5(CCN5)C4)cc3C2)O1 [Example 55, 5-[(2S,6R)-2-[[5-(1,6-diazaspiro[3.3]heptan-6-yl)isoindolin-2-yl]methyl]-6-methyl-morpholin-4-yl]quinoline-8-carbonitrile]
- IC50: 84 nM
